Experimental data from BindingDB's records for doi:10.1021/jm960594+ (Nippon Zoki Pharmaceutical, 1997).

The molecules below were run against T1, Aldo-keto reductase family 1 member A1 (Rattus norvegicus, UniProt P51635) (assay: In vitro inhibitory activity against rat kidney aldehyde reductase(ALR).).
T1 sequence (P51635 whole entry): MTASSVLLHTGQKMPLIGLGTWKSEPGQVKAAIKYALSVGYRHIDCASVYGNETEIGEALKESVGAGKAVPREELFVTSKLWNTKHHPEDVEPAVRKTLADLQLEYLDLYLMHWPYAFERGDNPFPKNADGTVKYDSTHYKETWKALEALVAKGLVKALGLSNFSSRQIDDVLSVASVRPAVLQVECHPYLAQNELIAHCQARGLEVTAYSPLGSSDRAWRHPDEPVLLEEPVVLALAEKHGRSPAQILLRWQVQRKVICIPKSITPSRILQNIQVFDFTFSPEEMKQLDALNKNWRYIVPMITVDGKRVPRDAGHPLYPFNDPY

| SMILES | IC50 |
| --- | --- |
| O=C(O)Cn1c(O)c(O)n(Cc2cccc([N+](=O)[O-])c2)c1=O | > 100 µM |
| O=C(O)Cn1cc(O)n(Cc2cccc([N+](=O)[O-])c2)c1=O [[3-(3-Nitro-benzyl)-2,4-dioxo-imidazolidin-1-yl]-acetic acid] | > 100 µM |
| O=C(O)Cn1c(O)cn(Cc2cccc([N+](=O)[O-])c2)c1=O [[3-(3-Nitro-benzyl)-2,5-dioxo-imidazolidin-1-yl]-acetic acid] | > 100 µM |
| O=C(O)Cn1c(=O)cc(O)n(Cc2cccc([N+](=O)[O-])c2)c1=O [[3-(3-Nitro-benzyl)-2,4,6-trioxo-tetrahydro-pyrimidin-1-yl]-acetic acid] | > 100 µM |
